Test results taken from patent US20060069110A1, “Substituted heterocyclic compounds and methods of use” (priority 2004, published 2006).

Each molecule was assayed on THP1 cells (LPS induced TNF release) (assay: Lipopolysaccharide-Activated THP1 Cell TNF Production Assay). Conditions: Homo sapiens, THP-1; THP1 cells, bacterial LPS, secreted TNF-α after 3 h at 37° C.; read-out: IC50 values in the THP1 cell assay (LPS induced TNF release).
Assay type: cell-based
Outline: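 THP1 cells at 1E6/mL were treated with 3-fold serial compound dilutions and LPS (1 μg/mL stock) for 3 h at 37 °C. Secreted TNF-α was quantified by electrochemiluminescent sandwich immunoassay. Percent of DMSO control versus concentration was fitted to a 4-parameter equation.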

| IC50 [µM] | Structure (SMILES) |
| --- | --- |
| ≤ 20 | C[C@@H](Cc1cccc(CN)c1)Nc1nccc(N(C)c2ccnc(-c3ccccc3F)n2)n1 [Example 83, N^2-((S)-1-(3-(Aminomethyl)phenyl)propan-2-yl)-N^4-(2-(2-fluorophenyl)pyrimidin-4-yl)-N^4-methylpyrimidine-2,4-diamine] |
| ≤ 20 | CN(c1ccnc(NCCc2ccccc2)n1)c1nccc(C(C)(C)C)n1 [Example 186, N^4-(4-tert-Butylpyrimidin-2-yl)-N^4-methyl-N^2-phenethylpyrimidine-2,4-diamine] |
| ≤ 20 | CC(=O)N1CCC(Nc2nccc(N(C)c3c[nH]c(=O)c(-c4ccccc4)c3)n2)CC1 [Example 167, 5-((2-(1-Acetylpiperidin-4-ylamino)pyrimidin-4-yl)(methyl)amino)-3-phenyl-pyridin-2(1H)-one] |
| ≤ 20 | CC(Cc1ccc(F)c(CO)c1)Nc1nccc(N(C)c2cc(-c3ccccc3)c(=O)n(C)c2)n1 (stereo not shown) [Example 177, 5-((2-(1-(4-Fluoro-3-(hydroxymethyl)phenyl)propan-2-ylamino)pyrimidin-4-yl)(methyl)amino)-1-methyl-3-phenylpyridin-2(1 H)-one] |
| ≤ 20 | CN(c1cnc(OCc2ccccc2)c(-c2ccccc2)c1)c1ccnc(NC2CCNCC2)n1 [N^4-(6-(Benzyloxy)-5-phenylpyridin-3-yl)-N^4-methyl-N^2-(piperidin-4-yl)-pyrimidine-2,4-diamine] |
| ≤ 20 | CC(Cc1cccc(CO)c1)Nc1nccc(N(C)c2cc(Cl)nc(-c3ccccc3)c2)n1 (stereo not shown) [Example 163, (3-(2-(4-((2-Chloro-6-phenylpyridin-4-yl)(methyl)amino)pyrimidin-2-ylamino)-propyl)phenyl)methanol] |
| ≤ 20 | CC(=O)N[C@H]1CC[C@H](Nc2nccc(N(C)c3ccnc(-c4ccccc4)n3)n2)CC1 [Example 24, N-(4-(4-(Methyl(2-phenylpyrimidin-4-yl)amino)pyrimidin-2-ylamino)cyclohexyl)-acetamide] |
| ≤ 20 | CN(c1cccc(-c2ccccc2Cl)n1)c1ccnc(NCCc2ccccc2)n1 [Example 136, N^4-(6-(2-Chlorophenyl)pyridin-2-yl)-N^4-methyl-N^2-phenethylpyrimidine-2,4-diamine] |
| ≤ 20 | CN(c1ccnc(NC2CCNCC2)n1)c1ccnc(-c2ccccc2)n1 [Example 16, N^4-Methyl-N^4-(2-phenylpyrimidin-4-yl)-N^2-(piperidin-4-yl)pyrimidine-2,4-diamine] |
| ≤ 20 | CN(c1cccc(-c2ccco2)n1)c1ccnc(NCCc2ccccc2)n1 [Example 149, N^4-(6-(Furan-2-yl)pyridin-2-yl)-N^4-methyl-N^2-phenethylpyrimidine-2,4-diamine] |
| ≤ 20 | Cc1cc(N(C)c2ccnc(-c3ccccc3)n2)nc(N[C@@H](C)Cc2cccc([C@@H](C)N)c2)n1 [Example 36, N^2-((S)-1-(3-((R)-1-Aminoethyl)phenyl)propan-2-yl)-N^4,6-dimethyl-N^4-(2-phenylpyrimidin-4-yl)pyrimidine-2,4-diamine] |
| ≤ 20 | COc1cccc(-c2cccc(N(C)c3ccnc(NCCc4ccccc4)n3)n2)c1 [Example 141, N^4-(6-(3-Methoxyphenyl)pyridin-2-yl)-N^4-methyl-N^2-phenethylpyrimidine-2,4-diamine] |
| ≤ 20 | CN(c1ccnc(N[C@H](Cc2ccccc2)C(=O)O)n1)c1ccnc(-c2ccccc2)n1 [Example 45, (R)-2-(4-(Methyl(2-phenylpyrimidin-4-yl)amino)pyrimidin-2-ylamino)-3-phenyl-propanoic acid] |
